From US20200390755A1, “COMPOUND FOR TREATING NERVOUS SYSTEM DISEASES AND USE THEREOF” (SHAANXI MICOT TECHNOLOGY CO., LTD., priority 2018, published 2020)

What was measured:
TrkB receptor = target: T1, TrkB receptor (Mus musculus, UniProt P15209); experiment: Western blotting of p-TrkB and t-TrkB in primary cortical neuron cells; assay type: cell-based; conditions: 500 nM, 10 min at 37° C., Vehicle = 100, n = 3
T1 construct: The culture continued until the primary cortical neuron cells mature; endogenous in cells; host or cells: primary cortical neurons from E18 mouse embryos (N171-82Q WT male x B6C3F1/J female)
Method: N171-82Q WT male mice were mated with female B6C3F1/J hybrid mice. B6C3F1/J mice 18 days after pregnancy were anesthetized with isoflurane and dissected to remove embryos, which were then placed in a 10 cm Petri dish containing Leibovitz's buffer. The head of the embryo was cut off, and the brain was peeled off to obtain the whole mouse brain, which was then placed in a new 10 cm Petri dish containing Leibovitz's buffer. The neurocortex of the brain was separated and placed in a 15 mL centrifuge tube containing 3 mL Leibovitz's buffer. The centrifuge tube was centrifuged at 1000 rpm for 1 minute, and the Leibovitz's buffer was gently removed from the centrifuge tube, and then 750 μL of 0.25% trypsin-EDTA and 75 μL of 0.1% DNase (2000 U/mL) were added to digest at 37° C. for 15 min. 750 μL of DMEM medium containing 5% FBS was added to stop the digestion. The cells were mixed well, and centrifuged at 1000 rpm for 5 minutes. Trypins/DNase mixture was removed, and 750 μL of Neurobasal medium (B-27, Glutamax, P/S) was added. The cells were mixed by gently pipetting with a pipette for 30 times. The cell suspension was filtered with a 40 µm filter and transferred to another new 50 mL centrifuge tube. 10 μL of the cell suspension was added to 90 μL of DMEM (diluted 10 times), and 10 μL of the liquid mixture was placed on a hemocytometer so that the suspension filled between the cover slip and the counting plate for counting. The cells in the four large grids of the plate were counted, wherein for the cells across the line, only the cells on the left and upper side lines were counted. The following formulas were used:
Number of cells/mL=total number of cells in the four large grids/4×10^4/mL
Total number of cells/mL=total number of cells in the four large grids/4×10^4/mL×dilution factor.
After counting, the cells were diluted with Neurobasal selection medium so that 1 mL of Neurobasal culture medium contained 0.5×10^6 cells.
200 μL of PDL solution previously heated in a 37° C. water bath was added to each well of a 6-well plate, and incubated at 37° C. overnight to allow PDL to evenly coat the well plate. The PDL solution was absorbed and the plate was washed twice with PBS. Before use, the PBS remaining on the plate was absorbed and the cover was opened to dry the plate in a super clean bench. 2 mL of cell suspension was added to each well (37° C., 5% CO2), and the cells were cultured until adherence. The culture medium was replaced and the culture continued for 3 days, and then the growth status of neurons was observed. Every other 3 days, half of the medium was removed and replaced with fresh complete medium. The culture continued until the primary cortical neuron cells mature (usually mature on the 14th day of culture).
After the primary cortical neuron cells have matured, appropriate amount of freshly prepared culture medium was added until final volume in each well was 2 mL. The experiment included a blank control group (Vehicle), a positive control group BDNF (10 ng/mL), a control compound group (500 nM), and 6 test compound groups (500 nM). Three repeats were set for each dose. After incubating at 37° C. for 10 min, the culture solution was discarded and the cells were washed with pre-chilled PBS, and then 40 μL of pre-chilled lysate (RIPA buffer 10 mL and protease and phosphatase inhibitor 100 μL) was added to each well for lysis on ice for 30 min. After lysis, the cell was crushed by ultrasonic cell crusher, centrifuged at 14000 rpm for 20 min at 4° C. The supernatant was transferred to a new 1.5 mL centrifuge tube to extract protein. Western blotting experiments were used to detect the protein levels of (A) p-TrkB and t-TrkB; (B) p-AKT and t-AKT.
The software Sigmaplot 13.0 was used for statistical analysis of the data, and the data of each group was expressed as mean±standard error (x±SEM). […]

N171-82Q HD mice = experiment: Rotarod experiment, HD mice; assay type: in vivo, mouse; conditions: 5 mg/kg/d intragastric
Method: 7-week-old N171-82Q HD male mice were paired with female B6C3F1/J hybrid mice to obtain newborn mice. From 21 days of age, male mice were housed in separate cages. 0.5 cm of mouse tail tissue was removed to extract DNA to determine the genotype of the mouse, such that N171-82Q HD mice and WT mice needed for the experiment were obtained. The mice were randomly divided into WT Vehicle group (normal mice), WT test compound group (administration group of normal mice, 5 mg/kg/d, n=10), HD Vehicle group (blank group of HD mice, n=15), HD test compound group (administration groups 1-5 of HD mice, 5 mg/kg/d, n=10). The test compound was suspended in 1% CMC-Na solution and administered by intragastric administration until the end of the study. The weights of the mice were measured every week. Behavioral tests were performed at 12 weeks, 18 weeks, and 24 weeks of age to investigate motor function. At 20 weeks, 3 samples of tissue from each group were used for western blotting and immunohistochemistry. At 24 weeks, MRI scans were performed. At the end of the study, the effect of the test compound on the mortality of mice was evaluated.
The software Sigmaplot 13.0 was used for statistical analysis of the data, and the data of each group was expressed as mean standard error (x±SEM). Behavioral test results were analyzed using two-way (genotype and processing factor) ANOVA and post-ho tests, the comparison and statistics of weight data were performed using two-way (genotype and age) ANOVA of repeated measures, and mortality was counted using Kaplan-Meier method. Other measurement data were analyzed by one-way ANOVA. P<0.05 was considered statistically significant.
The motor function of mice was evaluated by the rotarod experiment and three types of balance beam experiments. The shorter the time for mouse to cross the balance beam, and the longer the time to drop, the stronger the coordination ability of the mouse.
The maximum time for mice fatigue rotarod was set to 5 minutes, and the acceleration was set from 4 rpm up to 40 rpm. Time record was began when the mouse was placed on the rotarod. The time the mouse remained on the rod, i.e., drop latent period, was recorded to indicate its motor coordination ability. One day before the rotarod experiment, each mouse was trained for 5 minutes, and then rested in the cage after the training session. On the day of the experiment, the mice were placed on the rotating rotarod for three rounds of tests, with a 30-minute rest between tests before entering the next round of test. The result was the average of the three tests.

T1 sequence (P15209 32-821): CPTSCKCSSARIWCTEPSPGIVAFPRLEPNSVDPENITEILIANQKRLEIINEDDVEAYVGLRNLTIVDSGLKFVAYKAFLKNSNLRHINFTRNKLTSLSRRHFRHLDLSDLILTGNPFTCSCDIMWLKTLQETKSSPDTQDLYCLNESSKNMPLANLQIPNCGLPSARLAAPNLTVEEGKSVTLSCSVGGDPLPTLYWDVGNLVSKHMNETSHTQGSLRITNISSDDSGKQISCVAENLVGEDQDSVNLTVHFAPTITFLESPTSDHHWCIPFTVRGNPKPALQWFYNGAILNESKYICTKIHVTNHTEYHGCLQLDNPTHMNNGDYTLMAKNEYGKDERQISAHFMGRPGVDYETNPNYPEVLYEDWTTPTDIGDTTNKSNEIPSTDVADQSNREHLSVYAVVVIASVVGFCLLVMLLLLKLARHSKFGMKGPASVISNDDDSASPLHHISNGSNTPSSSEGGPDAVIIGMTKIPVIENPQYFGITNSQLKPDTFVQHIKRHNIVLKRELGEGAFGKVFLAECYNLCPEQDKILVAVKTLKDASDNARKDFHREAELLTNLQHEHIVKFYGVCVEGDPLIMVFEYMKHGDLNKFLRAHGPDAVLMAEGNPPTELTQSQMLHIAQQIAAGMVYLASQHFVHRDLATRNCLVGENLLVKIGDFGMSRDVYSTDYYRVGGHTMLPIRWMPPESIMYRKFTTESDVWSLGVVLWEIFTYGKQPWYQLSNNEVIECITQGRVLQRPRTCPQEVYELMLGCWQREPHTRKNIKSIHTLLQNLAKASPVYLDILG

Row | Structure (SMILES) | Relative intensity of p-TrkB/t-TrkB protein (TrkB receptor) | Time to drop (drop latent period), rotarod (N171-82Q HD mice; 12 w) | Time to drop (drop latent period), rotarod (N171-82Q HD mice; 18 w) | Time to drop (drop latent period), rotarod (N171-82Q HD mice; 24 w)
1 | CC1(C)CCN(c2ccc(-c3cc(=O)c4ccc(O)c(O)c4o3)cc2)CC1 [Example 4, 2-(4-(4,4-dimethylpiperidin-1-yl)phenyl)-7,8-dihydroxy-4H-chromen-4-one] | 216.198 ± 8.865 | 95.09 ± 27.23 s | 99.86 ± 30.27 s | 79.15 ± 34.17 s
2 | CC1CC(C)CN(c2ccc(-c3cc(=O)c4ccc(O)c(O)c4o3)cc2)C1 (centres unmarked) [Example 5, 2-(4-(3,5-dimethylpiperidin-1-yl)phenyl)-7,8-dihydroxy-4H-chromen-4-one] | 213.254 ± 12.379 | 98.19 ± 29.17 s | 101.03 ± 32.39 s | 81.71 ± 30.15 s
3 | O=c1cc(-c2ccc(N3CCCCC3)cc2)oc2c(O)c(O)ccc12 [Example 1, 7,8-dihydroxy-2-(4-(piperidin-1-yl)phenyl)-4H-chromen-4-one] | 216.727 ± 8.642 | 95.90 ± 23.32 s | 101.03 ± 32.39 s | 83.55 ± 29.07 s
4 | CN(C)C1CCN(c2ccc(-c3cc(=O)c4ccc(O)c(O)c4o3)cc2)CC1 [Example 3, 2-(4-(4-(dimethylamino)piperidin-1-yl)phenyl)-7,8-dihydroxy-4H-chromen-4-one] | 234.685 ± 14.695 | 94.15 ± 30.15 s | 103.40 ± 37.86 s | 90.06 ± 33.45 s
5 | COc1ccc2c(=O)cc(-c3ccc(N4CCCCC4)cc3)oc2c1OC [Example 2, 7,8-dimethoxy-2-(4-(piperidin-1-yl)phenyl)-4H-chromen-4-one] | 206.453 ± 7.574 | 98.89 ± 21.35 s | 107.40 ± 27.48 s | 89.67 ± 30.76 s
